According to publication PMC10424185, “C-2 Thiophenyl Tryptophan Trimers Inhibit Cellular Entry of SARS-CoV-2 through Interaction with the Viral Spike (S) Protein” (Journal of Medicinal Chemistry, 2023):
Entries after “also recorded” stand apart in the source; their conditions may differ. Like-named read-outs stand apart in the source and are kept apart here.

Key:
[1] = test system: VSV-S (pseudotyped VSV carrying the S protein of Wuhan-Hu-1 SARS-CoV-2); assay: microbe, parasite or virus in culture; type: cell-based
[2] = test system: VSV-S (pseudotyped VSV carrying the S protein of Wuhan-Hu-1 SARS-CoV-2); assay: microbe, parasite or virus in culture; type: cell-based; conditions: read-out: IC50 (concentration at which virus infection is reduced by 50%), VSV-S in A549-ACE2-TMPRSS2 cells
VSV-SWuhan-Hu-1 = assay: microbe, parasite or virus in culture; type: cell-based, SARS-CoV-2; conditions: Vesicular stomatitis virus, VeroE6/TMPRSS2, read-out: IC50 ± SD, pseudotyped VSV carrying S of Wuhan-Hu-1
[3] = test system: VSV-SOmicron (S protein of SARS-CoV-2 Omicron BA.1); assay: organism not typed; type: cell-based
SARS-CoV-2 RBD [4] = target: T1, SARS-CoV-2 RBD (Severe acute respiratory syndrome coronavirus 2, UniProt P0DTC2); type: binding
[5] = target: binding of human ACE2 catalytic domain to RBD (Severe acute respiratory syndrome coronavirus 2, UniProt P0DTC2); parameters: species or system SARS-CoV-2 / human
[6] = test system: VSV-G (VSV pseudotyped with its native glycoprotein); type: cell-based, vesicular stomatitis virus
in vitro [7] = conditions: African green monkey
in vitro [8] = conditions: human
SARS-CoV-2 RBD [9] = target: T1, SARS-CoV-2 RBD; assay: biochemical; type: binding
[10] = Vesicular stomatitis virus, Vero C1008, read-out: IC50 (concentration at which virus infection is reduced by 50%), VSV-S in Vero E6 cells
[11] = read-out: IC50 (concentration at which virus infection is reduced by 50%), VSV-S in Vero E6 cells
[12] = read-out: IC50 ± SD, pseudotyped VSV carrying S of Omicron BA.1
[13] = VeroE6/TMPRSS2, read-out: IC50 ± SD, pseudotyped VSV carrying S of Omicron BA.1

Row | Compound | infection (viral GFP reporter) when compound added one-hour post virus addition [1] | infection (viral GFP reporter) when compound added together with the virus [1] | primary HTS screening result (in words) [1] | IC50 [1, 10] [µM] | IC50 ([1]; Vesicular stomatitis virus, Vero C1008, read-out: IC50, compound preincubated with the cells) [µM] | IC50 ([1]; Vesicular stomatitis virus, Vero C1008, read-out: IC50, compound preincubated with the virus) [µM] | IC50 [1, 11] [µM] | IC50 ([2]; Vesicular stomatitis virus) [µM] | IC50 (VSV-SWuhan-Hu-1) [µM] | IC50 [3, 12] [µM] | effect on thermofluor fluorescence profile / thermal stability of RBD (in words) (SARS-CoV-2 RBD [4]) | increase of ACE2 concentrations needed for binding to the RBD [5] [fold] | antiviral activity against VSV-G [6] | CC50 (in vitro [7]) [µM] | CC50 (in vitro [8]) [µM] | IC50 [2] [µM] | antiviral activity in the VSV-S assay (in words) [1] | Kd (SARS-CoV-2 RBD [9]) [µM] | IC50 [3, 13] [µM]
1 | NCC(=O)NC(CCC(=O)NC(Cc1c(Sc2ccc([N+](=O)[O-])cc2)[nH]c2ccccc12)C(=O)O)(CCC(=O)NC(Cc1c(Sc2ccc([N+](=O)[O-])cc2)[nH]c2ccccc12)C(=O)O)CCC(=O)NC(Cc1c(Sc2ccc([N+](=O)[O-])cc2)[nH]c2ccccc12)C(=O)O (centres unmarked) [Compound 2] | no decrease in infection | strong reduction in infection | significant antiviral activity in the absence of cytotoxicity | 0.64 ± 0.47 | 0.32 | 0.48 | 0.6 ± 0.5 | 1 ± 0.4 | 0.08 ± 0.07 | 21.7 ± 0.83 | shift of the curve toward lower temperatures | ~10 | no antiviral activity | > 100 | > 100 | – | – | – | –
2 | NCC(=O)NC(CCC(=O)NC(Cc1c(Sc2ccc(C(F)(F)F)cc2)[nH]c2ccccc12)C(=O)O)(CCC(=O)NC(Cc1c(Sc2ccc(C(F)(F)F)cc2)[nH]c2ccccc12)C(=O)O)CCC(=O)NC(Cc1c(Sc2ccc(C(F)(F)F)cc2)[nH]c2ccccc12)C(=O)O (centres unmarked) [Compound 38] | – | – | – | 27.6 ± 12.6 | – | – | – | 11.6 ± 4.8 | – | – | shift of the curve toward lower temperatures | – | – | > 100 | > 100 | – | – | – | –
3 | CC(=O)c1ccc(Sc2[nH]c3ccccc3c2CC(NC(=O)CCC(CCC(=O)NC(Cc2c(Sc3ccc(C(C)=O)cc3)[nH]c3ccccc23)C(=O)O)(CCC(=O)NC(Cc2c(Sc3ccc(C(C)=O)cc3)[nH]c3ccccc23)C(=O)O)NC(=O)CN)C(=O)O)cc1 (centres unmarked) [Compound 41] | – | – | – | ~2 | – | – | 3 ± 1.9 | ~2 | – | – | shift of the curve toward lower temperatures; also recorded: thermally destabilized the RBD | – | – | > 100 | > 100 | 2.3 ± 1.7 | – | – | –
4 | CS(=O)(=O)c1ccc(Sc2[nH]c3ccccc3c2CC(NC(=O)CCC(CCC(=O)NC(Cc2c(Sc3ccc(S(C)(=O)=O)cc3)[nH]c3ccccc23)C(=O)O)(CCC(=O)NC(Cc2c(Sc3ccc(S(C)(=O)=O)cc3)[nH]c3ccccc23)C(=O)O)NC(=O)CN)C(=O)O)cc1 (centres unmarked) [Compound 42] | – | – | – | > 50 | – | – | – | – | – | – | did not cause any change in the curve; also recorded: no effect on the thermal stability of the RBD | – | – | > 100 | – | – | no antiviral activity | ≥ 2500 | –
5 | CCCCCCCC(=O)NCC(=O)NC(CCC(=O)NC(Cc1c(Sc2ccc([N+](=O)[O-])cc2)[nH]c2ccccc12)C(=O)O)(CCC(=O)NC(Cc1c(Sc2ccc([N+](=O)[O-])cc2)[nH]c2ccccc12)C(=O)O)CCC(=O)NC(Cc1c(Sc2ccc([N+](=O)[O-])cc2)[nH]c2ccccc12)C(=O)O (centres unmarked) [Compound 57] | – | – | – | 23.5 ± 3.8 | – | – | – | 11.1 ± 5 | – | – | shift of the curve toward lower temperatures | – | – | > 100 | > 100 | – | – | – | –
6 | CCCCCCCCCC(=O)NCC(=O)NC(CCC(=O)NC(Cc1c(Sc2ccc([N+](=O)[O-])cc2)[nH]c2ccccc12)C(=O)O)(CCC(=O)NC(Cc1c(Sc2ccc([N+](=O)[O-])cc2)[nH]c2ccccc12)C(=O)O)CCC(=O)NC(Cc1c(Sc2ccc([N+](=O)[O-])cc2)[nH]c2ccccc12)C(=O)O (centres unmarked) [Compound 58] | – | – | – | 21 ± 8.7 | – | – | – | 9.8 ± 4.3 | – | – | – | – | – | > 100 | > 100 | – | – | – | –
7 | CCCCCCCCCCCC(=O)NCC(=O)NC(CCC(=O)NC(Cc1c(Sc2ccc([N+](=O)[O-])cc2)[nH]c2ccccc12)C(=O)O)(CCC(=O)NC(Cc1c(Sc2ccc([N+](=O)[O-])cc2)[nH]c2ccccc12)C(=O)O)CCC(=O)NC(Cc1c(Sc2ccc([N+](=O)[O-])cc2)[nH]c2ccccc12)C(=O)O (centres unmarked) [Compound 59] | – | – | – | 30.3 ± 5.3 | – | – | – | 44.4 ± 23.4 | – | – | – | – | – | > 100 | > 100 | – | – | – | –
8 | O=C(O)CCCCC(=O)NCC(=O)NC(CCC(=O)NC(Cc1c(Sc2ccc([N+](=O)[O-])cc2)[nH]c2ccccc12)C(=O)O)(CCC(=O)NC(Cc1c(Sc2ccc([N+](=O)[O-])cc2)[nH]c2ccccc12)C(=O)O)CCC(=O)NC(Cc1c(Sc2ccc([N+](=O)[O-])cc2)[nH]c2ccccc12)C(=O)O (centres unmarked) [Compound 61] | – | – | – | ~2 | – | – | 2.1 ± 1.5 | ~2 | – | – | shift of the curve toward lower temperatures | – | – | > 100 | > 100 | 2.3 ± 0.8 | – | – | –
9 | NCCOCCOCCC(=O)NCC(=O)NC(CCC(=O)NC(Cc1c(Sc2ccc([N+](=O)[O-])cc2)[nH]c2ccccc12)C(=O)O)(CCC(=O)NC(Cc1c(Sc2ccc([N+](=O)[O-])cc2)[nH]c2ccccc12)C(=O)O)CCC(=O)NC(Cc1c(Sc2ccc([N+](=O)[O-])cc2)[nH]c2ccccc12)C(=O)O (centres unmarked) [Compound 63] | – | – | – | 0.7 ± 0.9 | – | – | – | 1.4 ± 1.1 | 0.01 | – | – | – | – | > 100 | > 100 | – | – | – | 25.4
10 | O=C(CCOCCOCCOCCOCCC(=O)NCC(=O)NC(CCC(=O)NC(Cc1c(Sc2ccc([N+](=O)[O-])cc2)[nH]c2ccccc12)C(=O)O)(CCC(=O)NC(Cc1c(Sc2ccc([N+](=O)[O-])cc2)[nH]c2ccccc12)C(=O)O)CCC(=O)NC(Cc1c(Sc2ccc([N+](=O)[O-])cc2)[nH]c2ccccc12)C(=O)O)NCC(=O)NC(CCC(=O)NC(Cc1c(Sc2ccc([N+](=O)[O-])cc2)[nH]c2ccccc12)C(=O)O)(CCC(=O)NC(Cc1c(Sc2ccc([N+](=O)[O-])cc2)[nH]c2ccccc12)C(=O)O)CCC(=O)NC(Cc1c(Sc2ccc([N+](=O)[O-])cc2)[nH]c2ccccc12)C(=O)O (centres unmarked) [Compound 65] | – | – | – | 0.28 ± 0.23 | – | – | 0.3 ± 0.2 | 15.8 ± 1.5 | 0.28 ± 0.23 | < 10 | shift of the curve toward lower temperatures | ~10 | – | > 100 | > 100 | – | – | – | 6.24 ± 0.16
